# Test results published in publication PMC9046089, “CCNE1 amplification is synthetic lethal with PKMYT1 kinase inhibition” (Nature, 2022).
# Several values for one entry are separate records, joined by “and”; a condition that tells them apart may be missing. Equal values may be shown once.
# Assays:
# Format in all cases: in vivo, mouse
# [1] = Body weight change of tumour-bearing mice; conditions: Gem 20mg/kg QWx4 IP, individual mice
# Experimental: (§1) Gemcitabine was administered once weekly intraperitoneally in saline. Animals were monitored for tumour volume, clinical signs and body weight three times per week. Tumour volume was measured using a digital calliper and calculated using the formula 0.52 × L × W^2, where L is length and W is width. Response to treatment was evaluated for tumour growth inhibition (% TGI). […] TV is tumour volume and subscripts indicate treatment group and time of sampling. According to NIACC and IACUC approved animal protocols, mice were euthanized as soon as their tumour volume exceeded 2,000 mm^3. Change in body weight (BW) was calculated using the formula: %BW change = (BWlast − BWday0/BWday0) × 100. BW change was calculated based on individual body weight changes relative to day 0. Statistical significance relative to vehicle control or other test groups was established by one-way ANOVA followed by Fisher’s least significant difference test for multiple groups and unpaired t-test for two group comparisons (GraphPad Prism v9.0). Investigators were not blinded during data collection and analysis.
# HCC1569 xenografts = assay: Cell line-derived xenograft, tumour growth; conditions: Gem 20mg/kg QWx4 IP
# Experimental: (§2) HCC1569, OVCAR3 and SUM149PT cells were implanted at 5 × 10^6 cells per mouse into the right flanks of female CB17-SCID, SCID-beige and NOD-SCID mice respectively (5–7 weeks old; Charles River), in 1:1 Matrigel:medium (Matrigel Corning, cat. no. CB35248).
# as §1
# OVCAR3 xenografts = assay: Cell line-derived xenograft, tumour growth; conditions: Gem 20mg/kg QWx4 IP
# Experimental: as §2, §1
smiles,measurement,setting,value
Nc1ccn([C@@H]2O[C@H](CO)[C@@H](O)C2(F)F)c(=O)n1 [Gem],Change in body weight (%) HCC1569,[1]; time 0,0%
same,Change in body weight (%) HCC1569,[1]; time 3,2.186% and 4.278% and -2.094% and 2.073% and 1.538% and -0.9709% and -1.493%
same,Change in body weight (%) HCC1569,[1]; time 7,3.279% and 3.743% and 1.047% and 5.181% and 1.026% and 0% and 1.99%
same,Change in body weight (%) HCC1569,[1]; time 9,0.5464% and 3.209% and 0.5236% and 3.109% and 2.5641% and 2.427% and 1.99%
same,Change in body weight (%) HCC1569,[1]; time 11,3.279% and 2.6738% and 1.571% and 2.591% and 0.5128% and 1.456% and 3.483%
same,Change in body weight (%) HCC1569,[1]; time 14,7.104% and 10.1604% and 2.6178% and 8.808% and 4.103% and 2.913% and 2.985%
same,Change in body weight (%) HCC1569,[1]; time 16,9.29% and 6.417% and 2.6178% and 5.181% and 3.077% and 4.854% and 4.975%
same,Change in body weight (%) HCC1569,[1]; time 18,8.197% and 8.556% and 3.141% and 6.218% and 3.59% and 6.796% and 0.995%
same,Change in body weight (%) HCC1569,[1]; time 21,12.5683% and 10.6952% and 5.759% and 9.326% and 8.205% and 11.6505% and 10.4478%
same,Change in body weight (%) HCC1569,[1]; time 23,13.1148% and 9.626% and 4.712% and 9.845% and 6.154% and 6.311% and 3.9801%
same,Change in body weight (%) OVCAR3,[1]; day 0,0%
same,Change in body weight (%) OVCAR3,[1]; day 3,1.389% and -3.111% and 1.796% and -4.018% and -0.4608% and -5.195% and 2.427%
same,Change in body weight (%) OVCAR3,[1]; day 7,4.63% and 0.4444% and 0.5988% and -2.232% and -0.9217% and 0% and 3.8835%
same,Change in body weight (%) OVCAR3,[1]; day 9,4.167% and -2.667% and 0% and -0.8929% and -3.226% and -2.1645% and 3.8835%
same,Change in body weight (%) OVCAR3,[1]; day 11,0% (2×) and -3.556% and 1.796% and -1.786% and -3.687% and 7.767%
same,Change in body weight (%) OVCAR3,[1]; day 14,2.778% and -1.333% and 0.5988% and -0.8929% and 0% and 0.8658% and 9.709%
same,Change in body weight (%) OVCAR3,[1]; day 16,3.7037% and -2.667% and -0.5988% and -1.786% and -4.147% and 0.4329% and 7.282%
same,Change in body weight (%) OVCAR3,[1]; day 18,4.63% and -2.222% and 0.5988% and -0.4464% and 1.843% and -1.7316% and 4.854%
same,Change in body weight (%) OVCAR3,[1]; day 21,8.7963% and 1.778% and 1.796% and -0.4464% and 2.765% and 0% and 8.252%
same,Tumor growth of HCC1569 xenografts,"HCC1569 xenografts; time 0, individual animals",105.749 and 117.204 and 102.711 and 148.478 and 128.24 and 85.4122 and 124.681
same,HCC1569 tumor volume (mm3),"HCC1569 xenografts; time 0, individual mice",105.749 mm3 and 117.204 mm3 and 102.711 mm3 and 148.478 mm3 and 128.24 mm3 and 85.4122 mm3 and 124.681 mm3
same,Tumor growth of HCC1569 xenografts,"HCC1569 xenografts; time 3, individual animals",151.536 and 159.659 and 162.777 and 151.443 and 177.63 and 154.669 and 192.079
same,HCC1569 tumor volume (mm3),"HCC1569 xenografts; time 3, individual mice",151.536 mm3 and 159.659 mm3 and 162.777 mm3 and 151.443 mm3 and 177.63 mm3 and 154.669 mm3 and 192.079 mm3
same,Tumor growth of HCC1569 xenografts,"HCC1569 xenografts; time 7, individual animals",138.854 and 145.293 and 143.642 and 108.998 and 199.13 and 137.034 and 160.487
same,HCC1569 tumor volume (mm3),"HCC1569 xenografts; time 7, individual mice",138.854 mm3 and 145.293 mm3 and 143.642 mm3 and 108.998 mm3 and 199.13 mm3 and 137.034 mm3 and 160.487 mm3
same,Tumor growth of HCC1569 xenografts,"HCC1569 xenografts; time 9, individual animals",174.796 and 137.503 and 143.242 and 176.878 and 226.134 and 163.467 and 188.183
same,HCC1569 tumor volume (mm3),"HCC1569 xenografts; time 9, individual mice",174.796 mm3 and 137.503 mm3 and 143.242 mm3 and 176.878 mm3 and 226.134 mm3 and 163.467 mm3 and 188.183 mm3
same,Tumor growth of HCC1569 xenografts,"HCC1569 xenografts; time 11, individual animals",223.015 and 184.936 and 195 and 179.883 and 241.724 and 153.608 and 171.36
same,HCC1569 tumor volume (mm3),"HCC1569 xenografts; time 11, individual mice",223.015 mm3 and 184.936 mm3 and 195 mm3 and 179.883 mm3 and 241.724 mm3 and 153.608 mm3 and 171.36 mm3
same,Tumor growth of HCC1569 xenografts,"HCC1569 xenografts; time 14, individual animals",204.003 and 261.558 and 183.38 and 118.879 and 239.252 and 185.171 and 204.752
same,HCC1569 tumor volume (mm3),"HCC1569 xenografts; time 14, individual mice",204.003 mm3 and 261.558 mm3 and 183.38 mm3 and 118.879 mm3 and 239.252 mm3 and 185.171 mm3 and 204.752 mm3
same,Tumor growth of HCC1569 xenografts,"HCC1569 xenografts; time 16, individual animals",195.461 and 216.259 and 164.879 and 153.977 and 196.654 and 193.17 and 190.906
same,HCC1569 tumor volume (mm3),"HCC1569 xenografts; time 16, individual mice",195.461 mm3 and 216.259 mm3 and 164.879 mm3 and 153.977 mm3 and 196.654 mm3 and 193.17 mm3 and 190.906 mm3
same,Tumor growth of HCC1569 xenografts,"HCC1569 xenografts; time 18, individual animals",221.924 and 212.425 and 129.02 and 208.213 and 166.677 and 229.196 and 227.014
same,HCC1569 tumor volume (mm3),"HCC1569 xenografts; time 18, individual mice",221.924 mm3 and 212.425 mm3 and 129.02 mm3 and 208.213 mm3 and 166.677 mm3 and 229.196 mm3 and 227.014 mm3
same,Tumor growth of HCC1569 xenografts,"HCC1569 xenografts; time 21, individual animals",185.067 and 156.685 and 149.724 and 161.993 and 145.441 and 216.395 and 247.024
same,HCC1569 tumor volume (mm3),"HCC1569 xenografts; time 21, individual mice",185.067 mm3 and 156.685 mm3 and 149.724 mm3 and 161.993 mm3 and 145.441 mm3 and 216.395 mm3 and 247.024 mm3
same,Tumor growth of HCC1569 xenografts,"HCC1569 xenografts; time 23, individual animals",177.467 and 131.768 and 165.163 and 189.467 and 130.853 and 205.401 and 303.013
same,HCC1569 tumor volume (mm3),"HCC1569 xenografts; time 23, individual mice",177.467 mm3 and 131.768 mm3 and 165.163 mm3 and 189.467 mm3 and 130.853 mm3 and 205.401 mm3 and 303.013 mm3
same,Tumor growth of OVCAR3 xenografts,"OVCAR3 xenografts; time 0, individual animals",127.251 and 90.8608 and 112.694 and 96.336 and 125.032 and 141.631 and 118.987
same,Tumor growth of OVCAR3 xenografts,"OVCAR3 xenografts; time 3, individual animals",203.437 and 160.884 and 245.447 and 183.946 and 210.941 and 179.854 and 163.096
same,Tumor growth of OVCAR3 xenografts,"OVCAR3 xenografts; time 7, individual animals",169.802 and 183.034 and 268.576 and 188.758 and 168.18 and 112.682 and 213.401
same,Tumor growth of OVCAR3 xenografts,"OVCAR3 xenografts; time 9, individual animals",250.578 and 145.319 and 296.396 and 174.266 and 208.875 and 111.675 and 222.442
same,Tumor growth of OVCAR3 xenografts,"OVCAR3 xenografts; time 11, individual animals",150.312 and 146.391 and 223.166 and 200.774 and 206.854 and 146.012 and 157.334
same,Tumor growth of OVCAR3 xenografts,"OVCAR3 xenografts; time 14, individual animals",213.268 and 123.935 and 200.751 and 155.809 and 196.515 and 140.875 and 141.404
same,Tumor growth of OVCAR3 xenografts,"OVCAR3 xenografts; time 16, individual animals",237.66 and 135.959 and 229.1 and 226.618 and 235.663 and 103.266 and 203.735
same,Tumor growth of OVCAR3 xenografts,"OVCAR3 xenografts; time 18, individual animals",251.017 and 162.673 and 318.873 and 214.059 and 306.209 and 174.974 and 210.077
same,Tumor growth of OVCAR3 xenografts,"OVCAR3 xenografts; time 21, individual animals",247.655 and 170.92 and 321.104 and 222.893 and 230.514 and 99.1867 and 166.154
same,Tumor growth of OVCAR3 xenografts,"OVCAR3 xenografts; time 23, individual animals",217.609 and 142.992 and 287.288 and 218.481 and 211.021 and 149.048 and 110.272
same,Tumor growth of OVCAR3 xenografts,"OVCAR3 xenografts; time 25, individual animals",172.222 and 104.59 and 228.551 and 206.723 and 216.753 and 107.406 and 123.877
same,Tumor growth of OVCAR3 xenografts,"OVCAR3 xenografts; time 28, individual animals",184.75 and 98.3676 and 117.318 and 112.167 and 170.273 and 123.013 and 138.241
same,Tumor growth of OVCAR3 xenografts,"OVCAR3 xenografts; time 31, individual animals",217.819 and 125.965 and 185.385 and 170.168 and 195 and 193.032 and 178.082
same,Tumor growth of OVCAR3 xenografts,"OVCAR3 xenografts; time 35, individual animals",357.498 and 160.976 and 228.46 and 273.584 and 249.247 and 117.028 and 138.719
